From ChEMBL document CHEMBL5291721, “A preclinical secondary pharmacology resource illuminates target-adverse drug reaction associations of marketed drugs” (Nat Commun, 2023)
*1 amine or outer side, *2 acyl side, *3 side chain or, on linkers, in order; H or OH if unused. Where a SMILES comes first, the peptide text is derived from it. Bridges are numbered along the chain shown (N, C = ends). [ ]: non-standard residue; d: D form. The star is where a group is joined. hTyr(3S-OH,4S-OH,3'-OSO3H) = N[C@H](C(=O)O)[C@H](O)[C@@H](O)c1ccc(O)c(OS(=O)(=O)O)c1; Orn(4R-OH,5R-OH) = O=C([C@H](C[C@@H](O)[C@@H](O)N[*:3])N[*:1])[*:2]; Pro(3S-OH,4S-Me) = C[C@H]1CN[C@H](C(=O)O)[C@H]1O; X1 = CCCCCOc1ccc(-c2cc(-c3ccc(C(=O)*)cc3)no2)cc1; Gln(3R-OH) = NC(=O)C[C@@H](O)[C@H](N)C(=O)O; Hyp = O=C(O)[C@@H]1C[C@@H](O)CN1

Experiments:
[1] = molecular target: T1, Muscarinic acetylcholine receptor M1 (Homo sapiens, UniProt P11229); type: functional, cell-based
T1 sequence (P11229 whole entry): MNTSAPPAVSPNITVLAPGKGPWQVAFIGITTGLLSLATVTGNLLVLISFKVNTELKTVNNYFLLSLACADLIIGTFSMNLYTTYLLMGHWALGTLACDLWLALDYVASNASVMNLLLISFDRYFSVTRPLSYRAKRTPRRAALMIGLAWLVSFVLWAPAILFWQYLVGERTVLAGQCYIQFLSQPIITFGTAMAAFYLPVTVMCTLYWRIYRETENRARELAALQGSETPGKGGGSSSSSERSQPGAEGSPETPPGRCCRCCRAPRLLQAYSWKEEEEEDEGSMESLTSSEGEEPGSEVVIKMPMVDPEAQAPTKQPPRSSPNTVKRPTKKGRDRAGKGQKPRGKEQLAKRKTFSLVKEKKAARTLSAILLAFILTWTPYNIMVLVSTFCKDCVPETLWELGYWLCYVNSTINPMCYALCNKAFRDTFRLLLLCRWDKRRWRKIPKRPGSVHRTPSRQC

[2] = molecular target: T2, Prostaglandin G/H synthase 1 (Rattus norvegicus, UniProt Q63921); type: functional
T2 sequence (Q63921 whole entry): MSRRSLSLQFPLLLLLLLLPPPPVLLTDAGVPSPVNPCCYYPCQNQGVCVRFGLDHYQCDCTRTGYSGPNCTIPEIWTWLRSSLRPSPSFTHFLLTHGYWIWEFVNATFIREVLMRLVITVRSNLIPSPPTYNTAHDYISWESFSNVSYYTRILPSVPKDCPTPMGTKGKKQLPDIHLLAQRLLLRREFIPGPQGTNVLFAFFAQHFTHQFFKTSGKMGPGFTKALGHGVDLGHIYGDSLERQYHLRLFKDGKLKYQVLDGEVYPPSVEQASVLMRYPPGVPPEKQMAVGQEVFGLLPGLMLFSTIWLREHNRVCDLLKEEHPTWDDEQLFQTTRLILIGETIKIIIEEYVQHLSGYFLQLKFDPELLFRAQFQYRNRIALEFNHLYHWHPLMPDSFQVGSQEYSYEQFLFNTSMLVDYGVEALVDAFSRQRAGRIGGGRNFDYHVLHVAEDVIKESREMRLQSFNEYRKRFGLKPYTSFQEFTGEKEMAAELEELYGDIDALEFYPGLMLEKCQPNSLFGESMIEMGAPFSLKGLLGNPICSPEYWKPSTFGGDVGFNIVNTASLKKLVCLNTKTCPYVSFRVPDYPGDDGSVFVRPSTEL

Glucocorticoid receptor = molecular target: T3, Glucocorticoid receptor (Homo sapiens, UniProt P04150)
T3 sequence (P04150 whole entry): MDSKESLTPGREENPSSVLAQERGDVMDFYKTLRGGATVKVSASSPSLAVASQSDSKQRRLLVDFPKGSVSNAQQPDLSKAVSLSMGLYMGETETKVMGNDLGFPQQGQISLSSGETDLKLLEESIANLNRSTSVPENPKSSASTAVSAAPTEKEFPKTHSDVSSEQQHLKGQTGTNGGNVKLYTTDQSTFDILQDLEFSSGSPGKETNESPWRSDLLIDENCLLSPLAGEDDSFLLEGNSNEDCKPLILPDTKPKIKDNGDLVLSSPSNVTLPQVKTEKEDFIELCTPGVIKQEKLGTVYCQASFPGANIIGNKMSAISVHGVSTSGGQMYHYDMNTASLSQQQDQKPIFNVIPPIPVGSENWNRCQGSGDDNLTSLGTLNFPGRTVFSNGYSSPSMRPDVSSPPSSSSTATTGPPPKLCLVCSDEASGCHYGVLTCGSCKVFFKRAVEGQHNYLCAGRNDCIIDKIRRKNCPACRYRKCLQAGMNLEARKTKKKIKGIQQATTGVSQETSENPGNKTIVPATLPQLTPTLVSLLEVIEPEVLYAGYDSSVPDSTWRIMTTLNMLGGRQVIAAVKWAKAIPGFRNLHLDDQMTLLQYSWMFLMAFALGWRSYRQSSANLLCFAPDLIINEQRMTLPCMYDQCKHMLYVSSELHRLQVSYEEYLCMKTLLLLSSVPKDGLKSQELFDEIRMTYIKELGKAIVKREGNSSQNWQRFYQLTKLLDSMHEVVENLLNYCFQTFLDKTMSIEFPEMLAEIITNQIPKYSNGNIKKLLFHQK

[3] = molecular target: Sodium-dependent dopamine transporter (Homo sapiens, UniProt Q01959)
[4] = molecular target: Gamma-aminobutyric acid receptor subunit alpha-1 (Rattus norvegicus, UniProt P62813)
B2 bradykinin receptor = molecular target: T4, B2 bradykinin receptor (Homo sapiens, UniProt P30411)
T4 sequence (P30411 whole entry): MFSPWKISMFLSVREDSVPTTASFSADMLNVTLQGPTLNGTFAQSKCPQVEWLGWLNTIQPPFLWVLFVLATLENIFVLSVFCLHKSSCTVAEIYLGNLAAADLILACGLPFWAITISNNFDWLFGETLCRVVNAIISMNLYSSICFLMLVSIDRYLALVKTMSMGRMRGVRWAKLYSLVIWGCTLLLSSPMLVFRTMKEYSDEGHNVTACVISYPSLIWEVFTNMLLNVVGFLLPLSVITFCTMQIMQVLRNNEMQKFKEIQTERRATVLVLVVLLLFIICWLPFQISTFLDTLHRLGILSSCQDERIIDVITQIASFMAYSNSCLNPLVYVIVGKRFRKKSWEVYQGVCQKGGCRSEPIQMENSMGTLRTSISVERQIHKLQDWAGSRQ
Also: assay procedure not described here.

Sequence of Sodium-dependent dopamine transporter (Q01959 whole entry): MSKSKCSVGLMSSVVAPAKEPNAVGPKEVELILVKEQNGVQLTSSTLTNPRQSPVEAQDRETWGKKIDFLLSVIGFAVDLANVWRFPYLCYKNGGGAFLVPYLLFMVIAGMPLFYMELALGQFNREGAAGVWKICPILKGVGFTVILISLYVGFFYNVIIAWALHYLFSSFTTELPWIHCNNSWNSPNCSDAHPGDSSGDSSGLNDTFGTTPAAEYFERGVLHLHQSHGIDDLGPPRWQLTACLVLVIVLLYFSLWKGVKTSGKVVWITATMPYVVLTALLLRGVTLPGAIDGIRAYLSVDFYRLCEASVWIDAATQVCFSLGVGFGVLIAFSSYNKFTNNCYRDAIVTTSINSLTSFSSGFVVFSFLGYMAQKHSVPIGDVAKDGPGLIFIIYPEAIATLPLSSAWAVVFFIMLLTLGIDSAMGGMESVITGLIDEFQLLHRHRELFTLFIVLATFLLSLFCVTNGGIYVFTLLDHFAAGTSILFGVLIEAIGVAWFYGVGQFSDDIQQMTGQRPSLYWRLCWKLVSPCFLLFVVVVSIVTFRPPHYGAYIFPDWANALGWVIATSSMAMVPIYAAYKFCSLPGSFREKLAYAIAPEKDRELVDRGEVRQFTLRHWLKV
Sequence of Gamma-aminobutyric acid receptor subunit alpha-1 (P62813 whole entry): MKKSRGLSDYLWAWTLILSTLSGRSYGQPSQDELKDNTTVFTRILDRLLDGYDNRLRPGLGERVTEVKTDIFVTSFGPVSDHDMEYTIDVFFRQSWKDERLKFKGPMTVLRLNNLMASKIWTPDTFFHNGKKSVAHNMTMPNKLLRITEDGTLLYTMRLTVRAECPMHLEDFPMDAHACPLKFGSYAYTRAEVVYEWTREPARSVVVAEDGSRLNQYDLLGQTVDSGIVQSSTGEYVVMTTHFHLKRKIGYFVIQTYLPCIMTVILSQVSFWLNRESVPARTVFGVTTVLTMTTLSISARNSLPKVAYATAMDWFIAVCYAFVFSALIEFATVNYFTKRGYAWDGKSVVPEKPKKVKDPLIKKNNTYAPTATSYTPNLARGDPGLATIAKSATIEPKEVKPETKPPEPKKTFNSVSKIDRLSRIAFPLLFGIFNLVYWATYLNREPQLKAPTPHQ

COc1nccnc1NS(=O)(=O)c1ccc(N)cc1
AC50 [1]: > 30 µM

O=C(Nc1cccc2c(=O)cc(-c3nnn[nH]3)oc12)c1ccc(OCCCCc2ccccc2)cc1
AC50 [1]: > 30 µM

NC(=O)c1nc(F)c[nH]c1=O
AC50 [1]: > 30 µM

CN(C)CCCN1C(=O)c2cc([N+](=O)[O-])ccc2Oc2ccccc21
AC50 [1]: > 30 µM

O=C(O)COc1nn(Cc2ccccc2)c2ccccc12 [BENDAZAC]
AC50 [1]: > 30 µM

Cc1ccc([C@@H]2O[C@H](CO)[C@@H](O)[C@H](O)[C@H]2O)cc1Cc1ccc(-c2ccc(F)cc2)s1 [CANAGLIFLOZIN ANHYDROUS]
AC50 [1]: > 30 µM

O=C(O)c1cc(=O)c2ccccc2o1 [CHROMOCARB]
AC50 [1]: > 30 µM

CN(CC(=O)O)C(=N)N [CREATINE]
AC50 [1]: > 30 µM

N[C@@H](CSSC[C@H](N)C(=O)O)C(=O)O [CYSTINE]
AC50 [1]: > 30 µM

C[C@]12CC[C@@H]3c4ccc(O)cc4CC[C@H]3[C@@H]1CC[C@@H]2OC(=O)CCC1CCCC1 [ESTRADIOL CYPIONATE]
AC50 [1]: > 30 µM

C[C@]12CCC(=O)C=C1CC[C@@H]1[C@@H]2[C@@H](O)C[C@@]2(C)[C@H]1CC[C@]2(O)C(=O)COC(=O)CCC(=O)O [HYDROCORTISONE HEMISUCCINATE ANHYDROUS]
AC50 [1]: > 30 µM

N=C(N)NCc1cccc([123I])c1 [IOBENGUANE I 123]
AC50 [1]: > 30 µM

CC(C)(N)C(=O)N[C@H](Cc1c[nH]c2ccccc12)C(=O)N[C@H](Cc1c[nH]c2ccccc12)NC=O [MACIMORELIN]
AC50 [1]: > 30 µM

C=C1c2c(Cl)ccc(O)c2C(=O)C2=C(O)[C@]3(O)C(=O)C(C(N)=O)=C(O)[C@@H](N(C)C)[C@@H]3[C@@H](O)[C@H]12 [MECLOCYCLINE]
AC50 [1]: > 30 µM

Cc1cc2c(OCC(O)CNC(C)C)cccc2[nH]1 (configuration not stated) [MEPINDOLOL]
AC50 [1]: > 30 µM

CCCCCOc1ccc(-c2cc(-c3ccc(C(=O)N[C@H]4C[C@@H](O)[C@@H](O)NC(=O)[C@@H]5[C@@H](O)[C@@H](C)CN5C(=O)[C@H]([C@H](O)CC(N)=O)NC(=O)[C@H]([C@H](O)[C@@H](O)c5ccc(O)c(OS(=O)(=O)O)c5)NC(=O)[C@@H]5C[C@@H](O)CN5C(=O)[C@H]([C@@H](C)O)NC4=O)cc3)no2)cc1 [MICAFUNGIN] (X1-[Orn(4R-OH,5R-OH)]T[Hyp][hTyr(3S-OH,4S-OH,3'-OSO3H)][Gln(3R-OH)][Pro(3S-OH,4S-Me)]; lactam 1-C)
AC50 [1]: 9.05 µM

CCOc1ccc2ccccc2c1C(=O)N[C@@H]1C(=O)N2[C@@H]1SC(C)(C)[C@@H]2C(=O)O [NAFCILLIN]
AC50 [1]: > 30 µM

CCCCCCCCCCC[C@@H](C[C@@H]1OC(=O)[C@H]1CCCCCC)OC(=O)[C@H](CC(C)C)NC=O [ORLISTAT]
AC50 [1]: > 30 µM

O=C1[C@H]2CCCC[C@H]2C(=O)N1CCCCN1CCN(c2nsc3ccccc23)CC1 [PEROSPIRONE]
AC50 [1]: 10.3 µM

CN(C)CCC(c1ccccc1)c1ccccn1 (configuration not stated) [PHENIRAMINE]
AC50 [1]: > 30 µM

O=C1NC(=O)C(c2ccccc2)(c2ccccc2)N1 [PHENYTOIN]
AC50 [2]: > 30 µM | AC50 (Glucocorticoid receptor): > 30 µM | AC50 [3]: > 30 µM | AC50 [4]: > 10 µM | AC50 (B2 bradykinin receptor): > 30 µM

CC(C)(C)C(=O)NCCCC(=O)O [PIVAGABINE]
AC50 [1]: > 30 µM

CC(C)C[C@H](CN)CC(=O)O [PREGABALIN]
AC50 [2]: > 30 µM | AC50 (Glucocorticoid receptor): > 30 µM | AC50 [3]: > 30 µM | AC50 [4]: > 30 µM | AC50 (B2 bradykinin receptor): > 30 µM

CC(C)[N+](C)(CCOC(=O)C1c2ccccc2Oc2ccccc21)C(C)C [PROPANTHELINE]
AC50 [1]: 0.003 µM

NC(=O)c1ncn([C@@H]2O[C@H](CO)[C@@H](O)[C@H]2O)n1 [RIBAVIRIN]
AC50 [2]: > 10 µM | AC50 (Glucocorticoid receptor): > 10 µM | AC50 [3]: > 10 µM | AC50 [4]: > 10 µM | AC50 (B2 bradykinin receptor): > 10 µM

CN(C)C(=O)c1nc(CNC(=O)CN)n(-c2ccc(Cl)cc2C(=O)c2ccccc2Cl)n1 [RILMAZAFONE]
AC50 [1]: > 30 µM

O=C(Nc1c(Cl)cncc1Cl)c1ccc(OC(F)F)c(OCC2CC2)c1 [ROFLUMILAST]
AC50 [2]: > 30 µM | AC50 (Glucocorticoid receptor): > 30 µM | AC50 [3]: > 30 µM | AC50 [4]: > 30 µM | AC50 (B2 bradykinin receptor): > 30 µM

CCCN(CCC)CCc1cccc2c1CC(=O)N2 [ROPINIROLE]
AC50 [2]: > 30 µM | AC50 (Glucocorticoid receptor): > 30 µM | AC50 [3]: > 30 µM | AC50 [4]: > 10 µM | AC50 (B2 bradykinin receptor): > 30 µM

CC(C)N(CCCCOCC(=O)NS(C)(=O)=O)c1cnc(-c2ccccc2)c(-c2ccccc2)n1 [SELEXIPAG]
AC50 [2]: > 30 µM | AC50 (Glucocorticoid receptor): > 30 µM | AC50 [3]: > 30 µM | AC50 [4]: > 30 µM | AC50 (B2 bradykinin receptor): > 10 µM

CC(=O)S[C@@H]1CC2=CC(=O)CC[C@]2(C)[C@H]2CC[C@@]3(C)[C@@H](CC[C@@]34CCC(=O)O4)[C@H]12 [SPIRONOLACTONE]
AC50 [2]: > 30 µM | AC50 (Glucocorticoid receptor): 0.19 µM | AC50 [3]: > 30 µM | AC50 [4]: > 10 µM | AC50 (B2 bradykinin receptor): > 30 µM

NC(=O)NS(=O)(=O)c1ccc(N)cc1 [SULFACARBAMIDE]
AC50 [1]: > 30 µM

CCCCNc1ccc(C(=O)OCCN(C)C)cc1 [TETRACAINE]
AC50 [2]: > 30 µM | AC50 (Glucocorticoid receptor): > 30 µM | AC50 [3]: > 10 µM | AC50 [4]: > 10 µM | AC50 (B2 bradykinin receptor): > 30 µM

NCCc1ccc(O)cc1 [TYRAMINE]
AC50 [1]: > 30 µM

CCCCCCCCCCCCCCCC(=O)OC/C=C(C)/C=C/C=C(C)/C=C/C1=C(C)CCCC1(C)C [VITAMIN A PALMITATE]
AC50 [1]: > 30 µM

Cc1cc(CC(=O)O)n(C)c1C(=O)c1ccc(Cl)cc1 [ZOMEPIRAC]
AC50 [2]: 16 µM | AC50 (Glucocorticoid receptor): > 30 µM | AC50 [3]: > 30 µM | AC50 [4]: > 30 µM | AC50 (B2 bradykinin receptor): > 30 µM
